In patent US9833497B2, “Human originated EGF domain proteins and use of the same” (CHENGDU SOURCEBIO LIMITED-LIABILITY COMPANY, priority 2013, dated 2017):

Tests used:
Type in all cases: cell-based
Klebsiella pneumonia = assay: MIC against Gram-negative bacteria: Klebsiella pneumonia
Summary of the method: (§1)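 Broth microdilution, LB medium, final inoculum 5×10^5 CFU/mL from McFarland 0.5 cultures. Recombinant human EGF domain proteins tested in two-fold steps, n=3. MIC: lowest concentration, no growth.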

E. coli BL21 = assay: MIC against Gram-negative bacteria: E. coli BL21
Summary of the method: as §1

Moraxella catarrhalis = assay: MIC against Gram-negative bacteria: Moraxella catarrhalis
Summary of the method: as §1

Serratia marcescens = assay: MIC against Gram-negative bacteria: Serratia marcescens
Summary of the method: as §1

E. coli DH5α = assay: Antibacterial activity: MIC and growth curve against E. coli DH5α in 96-well plate; details: minimal inhibitory concentration against E. coli DH5α; 96-well plate, 5×10^5 CFU/mL, 37° C., judged after 8 h
Summary of the method: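 MIC taken as lowest protein level with no bacterial growth, tracked by A600 every 30 min during 37 °C, 175 rpm culture. Two-fold protein series 50-12.5 μg/mL final, triplicate wells, against 5×10^5 CFU/mL of LB-washed mid-log cells.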

Proteus mirabilis = assay: MIC against Gram-negative bacteria: Proteus mirabilis
Summary of the method: as §1

Pseudomonas aeruginosa = assay: MIC against Gram-negative bacteria: Pseudomonas aeruginosa
Summary of the method: as §1

Aeromonas hydrophila = assay: MIC against Gram-negative bacteria: Aeromonas hydrophila
Summary of the method: as §1

Enterobacter cloacae = assay: MIC against Gram-negative bacteria: Enterobacter cloacae
Summary of the method: as §1

Citrobacter diversus = assay: MIC against Gram-negative bacteria: Citrobacter diversus
Summary of the method: as §1

Proteus vulgaris = assay: MIC against Gram-negative bacteria: Proteus vulgaris
Summary of the method: as §1

[1] = 96-well plate, 5×10^5 CFU/mL, 37° C., 10 h
[2] = Klebsiella pneumonia, 96-well plate, 5×10^5 CFU/mL, 37° C., 10 h
[3] = E. coli BL21, 96-well plate, 5×10^5 CFU/mL, 37° C., 10 h
[4] = Moraxella catarrhalis, 96-well plate, 5×10^5 CFU/mL, 37° C., 10 h
[5] = Serratia marcescens, 96-well plate, 5×10^5 CFU/mL, 37° C., 10 h
[6] = Proteus mirabilis, 96-well plate, 5×10^5 CFU/mL, 37° C., 10 h
[7] = Pseudomonas aeruginosa, 96-well plate, 5×10^5 CFU/mL, 37° C., 10 h
[8] = Aeromonas hydrophila, 96-well plate, 5×10^5 CFU/mL, 37° C., 10 h
[9] = Enterobacter cloacae, 96-well plate, 5×10^5 CFU/mL, 37° C., 10 h
[10] = Citrobacter diversus, 96-well plate, 5×10^5 CFU/mL, 37° C., 10 h
[11] = Proteus vulgaris, 96-well plate, 5×10^5 CFU/mL, 37° C., 10 h

Substance: PRT1025 (GHNYCSVNNGGCTHLCLATPGSRTCRCPDNTLGVDCI; listed as Homo sapiens)
- MIC (Klebsiella pneumonia; K. pneumonia, 10 h cultivation at 37° C.): 25 µg/mL
- MIC (E. coli BL21; E. coli BL21, 10 h cultivation at 37° C.): 25 µg/mL
- MIC (Moraxella catarrhalis; M. catarrhalis, 10 h cultivation at 37° C.): 25 µg/mL
- MIC (Serratia marcescens; S. marcescens, 10 h cultivation at 37° C.): 50 µg/mL
- MIC (E. coli DH5α): 50 µg/mL
- MIC (Proteus mirabilis; P. mirabilis, 10 h cultivation at 37° C.): 12.5 µg/mL
- MIC (Pseudomonas aeruginosa; P. aeruginosa, 10 h cultivation at 37° C.): 12.5 µg/mL
- MIC (Aeromonas hydrophila; A. hydrophila, 10 h cultivation at 37° C.): 100 µg/mL
- MIC (Enterobacter cloacae; E. cloacae, 10 h cultivation at 37° C.): 50 µg/mL
- MIC (Citrobacter diversus; C. diversus, 10 h cultivation at 37° C.): 50 µg/mL
- MIC (Proteus vulgaris; P. vulgaris, 10 h cultivation at 37° C.): 25 µg/mL

Substance: PRT660 (DHDECQDLACENGECVNTEGSFHCFCSPPLTLDLSQQRCM; listed as Homo sapiens)
- MIC K. pneumonia (Klebsiella pneumonia; [1]): 12.5 µg/mL
- MIC E. coli BL21 (E. coli BL21; [1]): 50 µg/mL
- MIC M. catarrhalis (Moraxella catarrhalis; [1]): 12.5 µg/mL
- MIC S. marcescens (Serratia marcescens; [1]): 12.5 µg/mL
- MIC (E. coli DH5α): 12.5 µg/mL
- MIC P. mirabilis (Proteus mirabilis; [1]): 25 µg/mL
- MIC P. aeruginosa (Pseudomonas aeruginosa; [1]): 12.5 µg/mL
- MIC A. hydrophila (Aeromonas hydrophila; [1]): 12.5 µg/mL
- MIC E. cloacae (Enterobacter cloacae; [1]): 50 µg/mL
- MIC C. diversus (Citrobacter diversus; [1]): 50 µg/mL
- MIC P. vulgaris (Proteus vulgaris; [1]): 50 µg/mL

Substance: PRT580 (CDCDPMGSQDGGRCDSHDDPALGLVSGQCRCKEHVVGTRCQQCRDGFFGLSISDRLGCRR; listed as Homo sapiens)
- MIC against K. pneumonia (Klebsiella pneumonia; [1]): 25 µg/mL
- MIC against E. coli BL21 (E. coli BL21; [1]): 25 µg/mL
- MIC against M. catarrhalis (Moraxella catarrhalis; [1]): 50 µg/mL
- MIC against S. marcescens (Serratia marcescens; [1]): 12.5 µg/mL
- MIC (E. coli DH5α): 12.5 µg/mL
- MIC against P. mirabilis (Proteus mirabilis; [1]): 12.5 µg/mL
- MIC against P. aeruginosa (Pseudomonas aeruginosa; [1]): 12.5 µg/mL
- MIC against A. hydrophila (Aeromonas hydrophila; [1]): 25 µg/mL
- MIC against E. cloacae (Enterobacter cloacae; [1]): 12.5 µg/mL
- MIC against C. diversus (Citrobacter diversus; [1]): 12.5 µg/mL
- MIC against P. vulgaris (Proteus vulgaris; [1]): 50 µg/mL

Substance: PRT153 (DCLACQGGSQRPCSGNGHCSGDGSRQGDGSCRCHMGYQGPLCT; listed as Homo sapiens)
- MIC (μg/mL) K. pneumonia (Klebsiella pneumonia; K. pneumonia, 10 h cultivation at 37° C., 5×10^5 CFU/mL): 12.5 µg/mL
- MIC (μg/mL) E. coli BL21 (E. coli BL21; E. coli BL21, 10 h cultivation at 37° C., 5×10^5 CFU/mL): 100 µg/mL
- MIC (μg/mL) M. catarrhalis (Moraxella catarrhalis; M. catarrhalis, 10 h cultivation at 37° C., 5×10^5 CFU/mL): 12.5 µg/mL
- MIC (μg/mL) S. marcescens (Serratia marcescens; S. marcescens, 10 h cultivation at 37° C., 5×10^5 CFU/mL): 50 µg/mL
- MIC (E. coli DH5α): 12.5 µg/mL
- MIC (μg/mL) P. mirabilis (Proteus mirabilis; P. mirabilis, 10 h cultivation at 37° C., 5×10^5 CFU/mL): 50 µg/mL
- MIC (μg/mL) P. aeruginosa (Pseudomonas aeruginosa; P. aeruginosa, 10 h cultivation at 37° C., 5×10^5 CFU/mL): 50 µg/mL
- MIC (μg/mL) A. hydrophila (Aeromonas hydrophila; A. hydrophila, 10 h cultivation at 37° C., 5×10^5 CFU/mL): 50 µg/mL
- MIC (μg/mL) E. cloacae (Enterobacter cloacae; E. cloacae, 10 h cultivation at 37° C., 5×10^5 CFU/mL): 25 µg/mL
- MIC (μg/mL) C. diversus (Citrobacter diversus; C. diversus, 10 h cultivation at 37° C., 5×10^5 CFU/mL): 25 µg/mL
- MIC (μg/mL) P. vulgaris (Proteus vulgaris; P. vulgaris, 10 h cultivation at 37° C., 5×10^5 CFU/mL): 12.5 µg/mL

Substance: PRT1235 (IGPQCEEMCNGQGSCINGTKCICDPGYSGPTCK; listed as Homo sapiens)
- MIC against K. pneumonia (Klebsiella pneumonia; [2]): 12.5 µg/mL
- MIC against E. coli BL21 (E. coli BL21; [3]): 12.5 µg/mL
- MIC against M. catarrhalis (Moraxella catarrhalis; [4]): 12.5 µg/mL
- MIC against S. marcescens (Serratia marcescens; [5]): 12.5 µg/mL
- MIC (E. coli DH5α): 12.5 µg/mL
- MIC against P. mirabilis (Proteus mirabilis; [6]): 12.5 µg/mL
- MIC against P. aeruginosa (Pseudomonas aeruginosa; [7]): 25 µg/mL
- MIC against A. hydrophila (Aeromonas hydrophila; [8]): 12.5 µg/mL
- MIC against E. cloacae (Enterobacter cloacae; [9]): 25 µg/mL
- MIC against C. diversus (Citrobacter diversus; [10]): 12.5 µg/mL
- MIC against P. vulgaris (Proteus vulgaris; [11]): 50 µg/mL

Substance: PRT459 (RTAKCEPACRHGGVCVRPNKCLCKKGYLGPQCE; listed as Homo sapiens)
- MIC against K. pneumonia (Klebsiella pneumonia; [1]): 50 µg/mL
- MIC against E. coli BL21 (E. coli BL21; [1]): 12.5 µg/mL
- MIC against M. catarrhalis (Moraxella catarrhalis; [1]): 50 µg/mL
- MIC against S. marcescens (Serratia marcescens; [1]): 25 µg/mL
- MIC (E. coli DH5α): 25 µg/mL
- MIC against P. mirabilis (Proteus mirabilis; [1]): 25 µg/mL
- MIC against P. aeruginosa (Pseudomonas aeruginosa; [1]): 25 µg/mL
- MIC against A. hydrophila (Aeromonas hydrophila; [1]): 12.5 µg/mL
- MIC against E. cloacae (Enterobacter cloacae; [1]): 25 µg/mL
- MIC against C. diversus (Citrobacter diversus; [1]): 25 µg/mL
- MIC against P. vulgaris (Proteus vulgaris; [1]): 12.5 µg/mL

Substance: PRT1265 (DVDECLENNGGCQHTCVNVMGSYECCCKEGFFLSDNQHTCI; listed as Homo sapiens)
- MIC against K. pneumonia (Klebsiella pneumonia; [2]): 12.5 µg/mL
- MIC against E. coli BL21 (E. coli BL21; [3]): 50 µg/mL
- MIC against M. catarrhalis (Moraxella catarrhalis; [4]): 12.5 µg/mL
- MIC against S. marcescens (Serratia marcescens; [5]): 12.5 µg/mL
- MIC (E. coli DH5α): 25 µg/mL
- MIC against P. mirabilis (Proteus mirabilis; [6]): 12.5 µg/mL
- MIC against P. aeruginosa (Pseudomonas aeruginosa; [7]): 25 µg/mL
- MIC against A. hydrophila (Aeromonas hydrophila; [8]): 50 µg/mL
- MIC against E. cloacae (Enterobacter cloacae; [9]): 25 µg/mL
- MIC against C. diversus (Citrobacter diversus; [10]): 25 µg/mL
- MIC against P. vulgaris (Proteus vulgaris; [11]): 50 µg/mL
